From US20250197374A1, “WEE1 DEGRADING COMPOUNDS AND USES THEREOF” (BRISTOL-MYERS SQUIBB COMPANY, priority 2023, published 2025)
Read-outs that look alike come from different tables or passages of the source.

Assays:
Format in all cases: cell-based
MKN45 cells = assay: MKN45 cell proliferation assay (Cell-Titer-Glo, 120 hr); settings: for EC50: read-out: MKN45 Cell Prolif. 120 hr EC50; for MKN45 Cell Prolif. 120 hr YMin (%): minimal percent of DMSO control observed
Excerpt: (§1) MKN45 cells were obtained from Celgene internal cell banks and cultured in RPMI complete media (RPMI-1640, 1× Penicillin/Streptomycin, 1× glutamine, 1× Sodium Pyruvate, Non-essential Amino Acids, 10% Fetal Bovine serum, all component from Thermo-Fisher). MDA-MB-231 cells were obtained from the ATCC (HTB-26) and cultured in RPMI-1640 and 10% Fetal Bovine serum; MDA-MB-231 cells were expanded and stored as aliquots in liquid nitrogen in Celgene internal cell banks. Compounds were dispensed into 384-well plates using an HP DE300 compound printer in triplicate with 8 compounds on each plate. Compounds were dispensed into 384-well black clear bottom plates (Corning #3764BC) using an EDC acoustic dispenser at BMS. For each compound, a 10-point dose response was printed at half-log dilutions starting at either 1 uM or 10 uM in triplicate for MKN45 cells and in duplicate for MDA-MB-231 cells. The DMSO concentration was kept constant for a final assay concentration of 0.1% per well assuming 50 ul final media volume. Compound plates were sealed and frozen at −20 C until use.
(§2) For each assay batch, compound plates were thawed and allowed to reach room temperature, and cells were seeded at 400 MKN45 cells per well, or 800 MDA-MB-231 cells per well, in 50 ul media listed above for each cell line. After 120 hours of incubation at 37 C and 5% CO2, cells were lysed by addition of 25 μL of Cell-Titer-Glo Reagent (Promega Corporation, Madison, WI), as per manufacturer's instructions, protected from light, shaken for 45 minutes, and total luminescence read by a Perkin Elmer Envision plate reader. Total luminescence signal is linearly correlated with cell number remaining in the well.
(§3) Luminescence data was processed per plate by subtracting reagent-only “blank” well luminescence from all measured values and calculating a percent of DMSO control value for each treatment well. Then, to determine the half-maximal effective concentration (EC50) values for cell growth inhibition, a four parameter logistic model was fit to the data for each DMSO-normalized compound: Sigmoidal Dose-Response Model: (FIT=(A+((B−A)/1+((C/x)^D)))) where C is the inflection point ([…]), D is the Hill slope, and A and B are the low and high limits of the fit respectively. The lower limit of the fit (value A) is referred to as Ymin-calculated. The minimal percent of DMSO control that is observed in the concentrations tested for each compound is labeled as “Ymin-obs”, and was recorded and reported in the tables. Sigmoidal fit curves were processed and evaluated using Activity Base (IDBS, Alameda, CA) or using Dotmatics (Boston, MA). N/A=not available at the present time.

WEE1 = molecular target: T1, WEE1 (Homo sapiens, UniProt P30291+Q96SW2); assay: WEE1-ePL degradation assay (293T-LentiX, InCELL Hunter luminescence, 4 hr); settings: for DC50: LentiX-HEK293T cells expressing WEE1-ePL, 4 hr incubation, read-out: 293T-LentiX WEE1-ePL Degradation 4 hr EC50; for 293T-LentiX WEE1-ePL Degradation 4 hr YMin (%): lower limit of fit, % of DMSO control signal remaining
T1 construct: C-terminal ePL-tagged (DiscoverX, Fremont, CA) full-length WEE1 expression construct; expressed in transfected cells; host or cells: LentiX-HEK293T (Invitrogen), lentivirally transduced; the cells also over-express GSPT1-GN
T1 sequence (P30291 whole entry): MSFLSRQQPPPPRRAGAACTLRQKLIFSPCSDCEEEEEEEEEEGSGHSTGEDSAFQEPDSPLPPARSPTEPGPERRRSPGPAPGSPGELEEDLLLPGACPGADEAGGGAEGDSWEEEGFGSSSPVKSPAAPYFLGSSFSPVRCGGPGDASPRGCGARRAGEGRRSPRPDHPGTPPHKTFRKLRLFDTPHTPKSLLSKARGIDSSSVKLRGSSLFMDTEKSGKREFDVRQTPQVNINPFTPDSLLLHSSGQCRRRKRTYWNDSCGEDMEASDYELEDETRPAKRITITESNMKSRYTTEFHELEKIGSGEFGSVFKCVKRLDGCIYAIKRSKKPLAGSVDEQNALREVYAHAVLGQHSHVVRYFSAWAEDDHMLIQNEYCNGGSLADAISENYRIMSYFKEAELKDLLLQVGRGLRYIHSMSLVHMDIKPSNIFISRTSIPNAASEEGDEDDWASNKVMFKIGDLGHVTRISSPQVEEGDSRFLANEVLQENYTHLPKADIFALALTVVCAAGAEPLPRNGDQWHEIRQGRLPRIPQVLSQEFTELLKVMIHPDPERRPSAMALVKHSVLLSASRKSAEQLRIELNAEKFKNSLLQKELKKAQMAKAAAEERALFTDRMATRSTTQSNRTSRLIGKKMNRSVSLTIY
T1 sequence (Q96SW2 whole entry): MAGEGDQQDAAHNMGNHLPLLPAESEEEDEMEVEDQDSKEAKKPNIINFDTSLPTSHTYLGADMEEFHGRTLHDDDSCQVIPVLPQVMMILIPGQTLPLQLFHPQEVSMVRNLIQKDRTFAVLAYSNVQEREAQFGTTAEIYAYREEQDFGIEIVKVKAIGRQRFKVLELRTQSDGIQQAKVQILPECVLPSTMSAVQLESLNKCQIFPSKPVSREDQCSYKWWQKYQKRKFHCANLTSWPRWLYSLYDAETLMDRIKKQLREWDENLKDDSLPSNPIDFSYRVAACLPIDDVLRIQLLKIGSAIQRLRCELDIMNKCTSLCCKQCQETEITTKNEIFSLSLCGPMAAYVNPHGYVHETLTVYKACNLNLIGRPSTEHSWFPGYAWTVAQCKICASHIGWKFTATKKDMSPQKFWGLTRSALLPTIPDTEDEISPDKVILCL
T1 sequence (Q16531 whole entry partner): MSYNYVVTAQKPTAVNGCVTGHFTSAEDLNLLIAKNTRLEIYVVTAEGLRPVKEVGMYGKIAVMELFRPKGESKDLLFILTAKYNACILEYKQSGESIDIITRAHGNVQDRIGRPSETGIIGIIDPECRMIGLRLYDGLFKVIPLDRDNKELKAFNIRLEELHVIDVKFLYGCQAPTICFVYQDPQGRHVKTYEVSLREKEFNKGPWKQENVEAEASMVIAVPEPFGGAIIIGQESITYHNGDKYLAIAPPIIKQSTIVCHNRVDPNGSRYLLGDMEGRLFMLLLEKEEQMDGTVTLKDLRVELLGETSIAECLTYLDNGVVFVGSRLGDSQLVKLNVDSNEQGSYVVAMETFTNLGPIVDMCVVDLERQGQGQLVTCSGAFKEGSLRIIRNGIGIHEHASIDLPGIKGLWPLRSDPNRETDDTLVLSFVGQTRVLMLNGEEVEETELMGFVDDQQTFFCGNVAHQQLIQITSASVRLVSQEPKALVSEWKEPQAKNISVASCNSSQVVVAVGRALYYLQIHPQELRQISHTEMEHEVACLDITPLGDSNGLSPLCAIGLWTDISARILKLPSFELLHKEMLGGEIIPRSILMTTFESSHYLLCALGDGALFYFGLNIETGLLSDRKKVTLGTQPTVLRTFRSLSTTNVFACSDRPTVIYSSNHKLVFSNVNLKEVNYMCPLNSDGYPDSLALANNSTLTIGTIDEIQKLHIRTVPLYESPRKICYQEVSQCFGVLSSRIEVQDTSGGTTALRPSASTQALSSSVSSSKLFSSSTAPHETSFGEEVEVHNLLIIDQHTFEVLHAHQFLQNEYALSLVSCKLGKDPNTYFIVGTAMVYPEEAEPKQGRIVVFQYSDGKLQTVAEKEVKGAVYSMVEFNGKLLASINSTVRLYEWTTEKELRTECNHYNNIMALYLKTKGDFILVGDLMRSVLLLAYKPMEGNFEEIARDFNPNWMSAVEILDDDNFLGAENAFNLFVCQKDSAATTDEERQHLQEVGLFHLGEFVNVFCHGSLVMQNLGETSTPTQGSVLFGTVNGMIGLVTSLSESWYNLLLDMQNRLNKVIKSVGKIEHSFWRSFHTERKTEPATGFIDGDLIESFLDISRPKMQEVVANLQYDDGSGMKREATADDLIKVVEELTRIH
Excerpt: To generate LentiX-WEE1-ePL-GSPT1-ND cells for the WEE1 degradation assay, LentiX-HEK293T (Invitrogen) were tranduced by lentivirus with a C-terminal ePL-tagged (DiscoverX, Fremont, CA) full-length WEE1 expression construct. A separate lentiviral construct was introduced to over-express a mutated form of GSPT1 (NP_002085), termed GSPT1-GN, which contains a G575N mutation and is further truncated in the first 158 amino acids. GSPT1-GN is functional but not degradable by Cereblon. Cells were selected and maintained in complete DMEM media (DMEM, 10% Heat Inactivated FBS, 400 μg/mL Geneticin, and 1 μg/mL puromycin at 37 C and 5% CO2). Cells were passaged every 3-4 days by reseeding 1×10^6 cells in a T150 flask.
Cells were dispensed into 384-well white plates (Corning #3570, NY) that were pre-spotted with compounds using an acoustic dispenser (Echo acoustic transfer system, Beckman Coulter Life Sciences, Carlsbad, CA) as a 10-point dose-response curve with a 3-fold dilution starting at either 1 uM or 10 uM and including a DMSO control. Twenty-five microliters of media containing 2500 cells for LentiX-oeWEE1-ePL was dispensed per well. Assay plates were incubated at 37° C. with 5% CO2 for four hours (WEE1) After incubation, 25 μL of the InCELL Hunter™ Detection Reagent Working Solution (DiscoverX, Fremont, CA) was added to each well and incubated at room temperature for 30 minutes protected from light. After 30 minutes, luminescence was read on a PHERAstar luminometer (Cary, NC).
To determine the half-maximal effective concentration (EC50) values for WEE1-ePL degradation, a four parameter logistic model was used: (Sigmoidal Dose-Response Model) (FIT=(A+((B−A)/1+((C/x)^D)))) where C is the inflection point (EC50), D is the Hill slope, and A and B are the low and high limits of the fit respectively). The lower limit of the fit (value A) is referred to as Ymin. […] The maximum limit constraint, Ymax, is similarly derived using DMSO control. The curves were processed and evaluated using Activity Base (IDBS, Alameda, CA) or using Dotmatics (Boston, MA).

MDA-MB-231 cells = assay: MDA-MB-231 cell proliferation assay (Cell-Titer-Glo, 120 hr); settings: for EC50: read-out: MDA-MB 231 Cell Prolif. 120 hr EC50; for MDA-MB 231 Cell Prolif. 120 hr YMin (%): minimal percent of DMSO control observed
Excerpt: as §1, §2, §3

[1] = Homo sapiens, MDA-MB-231, 120 h

SMILES	EC50 (MKN45 cells; Homo sapiens, MKN-45, 120 h) [nM]	MKN45 Cell Prolif. 120 hr YMin (%) (MKN45 cells)	DC50 (WEE1) [nM]	293T-LentiX WEE1-ePL Degradation 4 hr YMin (%) (WEE1)	EC50 (MDA-MB-231 cells; [1]) [nM]	MDA-MB 231 Cell Prolif. 120 hr YMin (%) (MDA-MB-231 cells)	EC50 (MKN45 cells) [nM]	EC50 (MDA-MB-231 cells) [nM]
COC[C@@H]1CN(Cc2cc3ccc(C4CCC(O)CC4)cc3cn2)C[C@H]1Oc1ccc2c(c1)CN([C@H]1CCC(=O)NC1=O)C2=O (relative stereo) [Example 51, rel-(S)-3-(5-(((3S,4S)-1-((7-(4-hydroxycyclohexyl)isoquinolin-3-yl)methyl)-4-(methoxymethyl)pyrrolidin-3-yl)oxy)-1-oxoisoindolin-2-yl)piperidine-2,6-dione]	1	9.9	1	29.0	15	24.8		
COC[C@@H]1CN(Cc2ccc3ccc(N4CCOCC4)nc3c2F)C[C@H]1Oc1ccc2c(c1)CN([C@H]1CCC(=O)NC1=O)C2=O [Example 105, (3S)-3-(5-{[(3S,4S)-1-{[8-fluoro-2-(morpholin-4-yl)quinolin-7-yl]methyl}-4-(methoxymethyl)pyrrolidin-3-yl]oxy}-1-oxo-2,3-dihydro-1H-isoindol-2-yl)piperidine-2,6-dione]	87	83.4	1	40.7	234	91.5		
O=C1CC[C@H](N2Cc3cc(O[C@@H]4CN(Cc5cc(F)c6nc(N7C[C@@H]8CCO[C@@H]8C7)ccc6c5)CC4(F)F)ccc3C2=O)C(=O)N1 (single isomer, unassigned) [Example 15, (S)-3-(5-(((R)-4,4-difluoro-1-((8-fluoro-2-((3aS*,6aS*)-hexahydro-5H-furo[2,3-c]pyrrol-5-yl)quinolin-6-yl)methyl)pyrrolidin-3-yl)oxy)-1-oxoisoindolin-2-yl)piperidine-2,6-dione]	6	8.8	2	28.4	73	31.4		
O=C1CCC(N2C(=O)c3ccc(O[C@H]4CCN(Cc5ccc6nc(N7CCOCC7)ncc6c5)C4)cc3C2=O)C(=O)N1 (single isomer, unassigned) [Example 12, 2-((S*)-2,6-dioxopiperidin-3-yl)-5-(((S)-1-((2-morpholino-quinazolin-6-yl)methyl)pyrrolidin-3-yl)oxy)isoindoline-1,3-dione]	337	40.6			2720	79.6		
O=C1CCC(N2C(=O)c3ccc(O[C@H]4CCN(Cc5ccc6nc(N7CCOCC7)ncc6c5)C4)cc3C2=O)C(=O)N1 (single isomer, unassigned) [Example 27, 2-((R*)-2,6-dioxopiperidin-3-yl)-5-(((S)-1-((2-morpholino-quinazolin-6-yl)methyl)pyrrolidin-3-yl)oxy)isoindoline-1,3-dione]		29.1				81.8	205	2990
COC[C@@H]1CN(Cc2cc(F)c3nc(C)c(N4CCOCC4)cc3c2)C[C@H]1Oc1ccc2c(c1)CN([C@H]1CCC(=O)NC1=O)C2=O [Example 100, (3S)-3-(5-{[(3S,4S)-1-{[8-fluoro-2-methyl-3-(morpholin-4-yl)quinolin-6-yl]methyl}-4-(methoxymethyl)pyrrolidin-3-yl]oxy}-1-oxo-2,3-dihydro-1H-isoindol-2-yl)piperidine-2,6-dione]			1	24.6				
CC(C)(C)C[C@H]1CN(Cc2cc(F)c3nc(C4CCOCC4)ccc3c2)C[C@@H]1Oc1ccc2c(c1)CN([C@H]1CCC(=O)NC1=O)C2=O (relative stereo) [Example 150, (3S)-3-(5-{[(3R*,4S*)-4-(2,2-dimethylpropyl)-1-{[8-fluoro-2-(oxan-4-yl)quinolin-6-yl]methyl}pyrrolidin-3-yl]oxy}-1-oxo-2,3-dihydro-1H-isoindol-2-yl)piperidine-2,6-dione]			10	48.5				
COC[C@@H]1CN(Cc2cc(F)c3cc(N4CCOCC4)ncc3c2)C[C@H]1Oc1ccc2c(c1)CN([C@H]1CCC(=O)NC1=O)C2=O [Example 49, (3S)-3-(5-{[(3S,4S)-1-{[5-fluoro-3-(morpholin-4-yl)isoquinolin-7-yl]methyl}-4-(methoxymethyl)pyrrolidin-3-yl]oxy}-1-oxo-2,3-dihydro-1H-isoindol-2-yl)piperidine-2,6-dione]			2	24.5				
CC(C)O[C@@H]1CN(Cc2cc(F)c3nc(C4CCOCC4)ccc3c2)C[C@H]1Oc1ccc2c(c1)CN([C@H]1CCC(=O)NC1=O)C2=O [Example 132, (3S)-3-(5-{[(3R,4R)-1-{[8-fluoro-2-(oxan-4-yl)quinolin-6-yl]methyl}-4-(propan-2-yloxy)pyrrolidin-3-yl]oxy}-1-oxo-2,3-dihydro-1H-isoindol-2-yl)piperidine-2,6-dione]			5	44.9				
COC[C@@H]1CN(Cc2ccc3ncc(N4CCOCC4)cc3c2F)C[C@H]1Oc1ccc2c(c1)CN([C@H]1CCC(=O)NC1=O)C2=O [Example 31, (3S)-3-(5-{[(3S,4S)-1-{[5-fluoro-3-(morpholin-4-yl)quinolin-6-yl]methyl}-4-(methoxymethyl)pyrrolidin-3-yl]oxy}-1-oxo-2,3-dihydro-1H-isoindol-2-yl)piperidine-2,6-dione]				20.1				
Cc1cc([C@H]2CN(Cc3cc(F)c4nc(C5CCOCC5)ccc4c3)C[C@@H]2Oc2ccc3c(c2)CN([C@H]2CCC(=O)NC2=O)C3=O)ccn1 (relative stereo) [Example 151, (3S)-3-(5-{[(3R*,4S*)-1-{[8-fluoro-2-(oxan-4-yl)quinolin-6-yl]methyl}-4-(2-methylpyridin-4-yl)pyrrolidin-3-yl]oxy}-1-oxo-2,3-dihydro-1H-isoindol-2-yl)piperidine-2,6-dione]			11	22.4				
COC[C@@H]1CN(Cc2cc(F)c3nc(C4CCN(C5COC5)CC4)ncc3c2)C[C@H]1Oc1ccc2c(c1)CN([C@H]1CCC(=O)NC1=O)C2=O [Example 144, (3S)-3-(5-{[(3S,4S)-1-({8-fluoro-2-[1-(oxetan-3-yl)piperidin-4-yl]quinazolin-6-yl}methyl)-4-(methoxymethyl)pyrrolidin-3-yl]oxy}-1-oxo-2,3-dihydro-1H-isoindol-2-yl)piperidine-2,6-dione]			3	21.4				
